The text below walks through data of patent US4857641A, “C.12 modified erythromycin A derivatives” (Pfizer Inc., priority 1987, dated 1989).

In general, MIC refers to the lowest concentration that inhibits growth of the organism.

≈ marks a conversion by molar mass, not a printed value. Like-named read-outs stand apart in the source and are kept apart here.

What all share (assay): in vitro antibacterial activity (MIC), BHI agar dilution
What all share (type): cell-based
(Agar dilution tests growth on a series of plates holding different concentrations.)

One assay concerns Pat. mult. Here is the method:
(§1) The compounds of the formula (3) are tested for in vitro antibacterial activity by standard methods in which the minimum inhibitory concentrations (MIC's) in mcg/ml against one or more microorganisms is measured. One such procedure is the one recommended by the International Collaborative Study on Antibiotic Sensitivity Testing (Ericcson and Sherris, Acta. Pathologica et Microbiologia Scandinav, Supp. 217, Section B: 64-68 [1971]), and employs brain heart infusion (BHI) agar and an inocula replicating device. Overnight growth tubes are diluted 100 fold for use as the standard inoculum (20,000-10,000 cells in approximately 0.002 ml. are placed on the agar surface; 20 ml. of BHI agar/dish). Twelve 2 fold dilutions of the test compound are employed, with initial concentration of the test drug being 200 mcg/ml. Single colonies are disregarded when reading plates after 18 hours at 37° C. The susceptibility (MIC) of the test organism is accepted as the lowest concentration of compound capable of producing complete inhibition of growth as judged by the naked eye.

For a further assay, the system named is E. coli. Particulars: E. coli 470, 18 hours at 37° C. Here is the method: as §1
Another assay has as its system Strep. pneum. As to conditions: Strep. pneum. 012, 18 hours at 37° C. Here is the method:
as §1

The test system of a further assay is Staph. epid. As to conditions: Staph. epid. 111, 18 hours at 37° C. Here is the method:
as §1

For another assay, the system named is Staph. aureus. How it is done:
as §1

Another assay relates to Hem. infl. Here is the method: as §1
A further assay has as its system Neis. sic. As to conditions: Neis. sic. 000, 18 hours at 37° C. Here is the method: as §1
A further assay has as its system Strep. faec. Particulars: Strep. faec. 006, 18 hours at 37° C. Here is the method:
as §1

Another assay relates to Strep. pyog. How it is done:
as §1

The mark [1] stands for this setting: Staph. aureus 052, 18 hours at 37° C.
Setting [2] is: Staph. aureus 110, 18 hours at 37° C.
[3] abbreviates: Escherichia coli, read-out: MIC.
The mark [4] stands for this setting: Staphylococcus aureus, Staph. aureus 005, 18 hours at 37° C, read-out: MIC.
The mark [5] stands for this setting: 18 h, Hem. infl. 038, 18 hours at 37° C, read-out: MIC.
Setting [6] is: 18 h, Hem. infl. 042, 18 hours at 37° C, read-out: MIC.
[7] abbreviates: 18 h, Hem. infl. 073, 18 hours at 37° C, read-out: MIC.
The mark [8] stands for this setting: 18 h, Hem. infl. 078, 18 hours at 37° C, read-out: MIC.
The mark [9] stands for this setting: 18 h, Hem. infl. 081, 18 hours at 37° C, read-out: MIC.
Setting [10] is: 18 h, Strep. pyog. 054, 18 hours at 37° C, read-out: MIC.
Setting [11] is: 18 h, Strep. pyog. 203, 18 hours at 37° C, read-out: MIC.

For the molecule “4"-0-Acetyl-12,12'-anhydro-9-deoxo-11-deoxy-9R,11-(thiocarbonyldioxy)erythromycin A [Compound 3a]”, the MIC in the assay on Pat. mult. (Pat. mult. 001, BHI agar, 18 hours at 37° C) is 25 µg/mL; against E. coli, 6.25 µg/mL; against Strep. pneum., 3.12 µg/mL; in the assay on Staph. epid., 12.5 µg/mL; in the assay with Staph. aureus (Staph. aureus 005, 18 hours at 37° C), 50 µg/mL; against Staph. aureus (setting [1]) it was 50 µg/mL. The MIC in the assay on Staph. aureus (setting [2]) is 50 µg/mL; against Hem. infl. (Hem. infl. 012, 18 hours at 37° C), above 50 µg/mL; against Hem. infl. (Hem. infl. 038, 18 hours at 37° C) it was above 50 µg/mL; in the assay on Hem. infl. (Hem. infl. 042, 18 hours at 37° C), 50 µg/mL; in the assay with Hem. infl. (Hem. infl. 073, 18 hours at 37° C) it was 50 µg/mL; in the assay with Hem. infl. (Hem. infl. 078, 18 hours at 37° C), 50 µg/mL. In addition, the MIC in the assay with Hem. infl. (Hem. infl. 081, 18 hours at 37° C) stood at 50 µg/mL; in the assay on Neis. sic., 50 µg/mL; against Strep. faec. it was 50 µg/mL; against Strep. pyog. (Strep. pyog. 054, 18 hours at 37° C), 50 µg/mL; in the assay with Strep. pyog. (Strep. pyog. 203, 18 hours at 37° C) it was 3.12 µg/mL.

Consider `C=C1C(CC)OC(=O)C(C)C(OC2CC(C)(OC)C(OC(C)=O)C(C)O2)C(C)C(OC2OC(C)CC(N(C)C)C2O)C(C)(O)CC(C)C(O)C(C)C1O` (stereo not drawn) [Compound 3b, 4"-O-Acetyl-12,12'anhydro-9-deoxo-9R-hydroxyerythromycin A], for which the minimum inhibitory concentration (MIC) was 25 µg/mL (≈ 32.9 µM) with Pat. mult. (18 h); 25 µg/mL (≈ 32.9 µM) in the assay on E. coli (setting [3]); above 50 µg/mL with Staph. epid. (read-out: MIC); above 50 µg/mL in the assay with Staph. aureus (setting [1]); above 50 µg/mL in the assay on Staph. aureus (setting [2]); above 50 µg/mL with Staph. aureus (setting [4]). The MIC is 50 µg/mL (≈ 65.8 µM) in the assay on Hem. infl. (setting [5]); above 50 µg/mL in the assay with Hem. infl. (setting [6]); above 50 µg/mL in the assay with Hem. infl. (setting [7]); above 50 µg/mL with Hem. infl. (setting [8]); above 50 µg/mL in the assay on Hem. infl. (setting [9]); 50 µg/mL (≈ 65.8 µM) in the assay with Neis. sic. (read-out: MIC). Moreover, the minimal inhibitory concentration (MIC) with Strep. faec. (read-out: MIC) is above 50 µg/mL; in the assay on Strep. pyog. (setting [10]), above 50 µg/mL; with Strep. pyog. (setting [11]) it was 3.12 µg/mL (≈ 4.11 µM).

For `CCC1OC(=O)C(C)C(OC2CC(C)(OC)C(OC(C)=O)C(C)O2)C(C)C(OC2OC(C)CC(N(C)C)C2O)C(C)(O)CC(C)C(O)C(C)C(O)C1(O)CO` (stereo not drawn) [Compound 3d, 4"-O-Acetyl-9-deoxo-9R-12'-dihydroxyerythromycin A], the MIC with Pat. mult. (Pat. mult. 001, BHI agar, 18 hours at 37° C, read-out: MIC) was 50 µg/mL (≈ 63 µM); in the assay with E. coli (setting [3]), 12.5 µg/mL (≈ 15.7 µM); with Staph. epid. (read-out: MIC), above 50 µg/mL; against Staph. aureus (setting [1]), above 50 µg/mL; against Staph. aureus (setting [2]), above 50 µg/mL; with Staph. aureus (setting [4]), above 50 µg/mL. In addition, the MIC in the assay on Hem. infl. (setting [5]) was above 50 µg/mL; in the assay on Hem. infl. (setting [6]), 50 µg/mL (≈ 63 µM); in the assay on Hem. infl. (setting [7]) it was 50 µg/mL (≈ 63 µM); in the assay with Hem. infl. (setting [8]), above 50 µg/mL; with Hem. infl. (setting [9]), above 50 µg/mL; in the assay with Neis. sic. (read-out: MIC), above 50 µg/mL. Moreover, the MIC in the assay with Strep. faec. (read-out: MIC) is 25 µg/mL (≈ 31.5 µM); with Strep. pyog. (setting [10]), above 50 µg/mL; in the assay with Strep. pyog. (setting [11]), 3.12 µg/mL (≈ 3.93 µM).
